Reference: the Deep4Chem optical property database

Test: solvent given as SMILES
[1] = in c1cc(-c2cccc(-n3c4ccccc4c4ccccc43)c2)cc(-n2c3ccccc3c3ccccc32)c1

`O=S(=O)(c1ccc(N2c3ccccc3N(c3ccccc3)c3ccccc32)cc1)c1ccc(N2c3ccccc3N(c3ccccc3)c3ccccc32)cc1` gave an emission maximum (in Cc1ccccc1) of 577 nm and an emission maximum (in c1cc(-n2c3ccccc3c3ccccc32)cc(-n2c3ccccc3c3ccccc32)c1) of 580 nm.

`C(#Cc1ccccc1)c1ccccc1` gave an emission maximum (in CO) of 307 nm, an emission maximum (in ClC(Cl)Cl) of 320 nm and an emission maximum (in ClCCl) of 302 nm.

Work on `Cc1cccc(C2=Cc3ccc4ccccc4[n+]3[B-](F)(F)O2)c1` yielded an emission maximum (in ClC(Cl)Cl) of 440 nm.

`Cc1ccc2nc(-c3cc(-c4nc5ccc(C)cc5[nH]4)cc(-c4nc5ccc(C)cc5[nH]4)c3)[nH]c2c1` gave an emission maximum (in CS(C)=O) of 386.5 nm.

`Nc1ccc2cc(-c3ccc(C(F)(F)F)cc3)oc(=O)c2c1` gave an emission maximum (in CC(C)=O) of 439 nm, an emission maximum (in CCCCCC) of 418 nm and an emission maximum (in CCCCO) of 460 nm. The emission maximum (in CCCO) was 459 nm, the emission maximum (in CCO) was 460 nm and the emission maximum (in CCOC(C)=O) was 436 nm. It also gave an emission maximum (in CN(C)C=O) of 448 nm, an emission maximum (in CO) of 461 nm and an emission maximum (in ClC(Cl)Cl) of 438 nm.

Work on `CC(C)[Si](C#Cc1ccc(C#C[Si](C(C)C)(C(C)C)C(C)C)c2nc3c(nc12)Cc1ccccc1-3)(C(C)C)C(C)C` yielded an emission maximum (in CCCCCC) of 430 nm.

Work on `CC(C)(C)C1Nc2ccccc2C(=O)N1c1ccccc1` (stereo unspecified) yielded an emission maximum (in CC#N) of 417 nm, an emission maximum (in CCCCCCCCCCCCCCCC) of 388 nm and an emission maximum (in CO) of 449 nm. It also gave an emission maximum (in ClC(Cl)Cl) of 409 nm and an emission maximum (in c1ccccc1) of 400 nm.

`COc1ccc2c(c1)-c1ccccc1C2=O` gave an emission maximum (in C1CCCCC1) of 472 nm, an emission maximum (in CC#N) of 510 nm and an emission maximum (in CCO) of 549 nm.

Compound `CCCCNC(=O)c1nc2c(N(C)C)nc(N(C)C)nc2n1Cc1ccccc1` has an emission maximum (in C1COCCO1) of 392 nm, an emission maximum (in CC#N) of 405 nm and an emission maximum (in CO) of 424 nm. For the same compound, the emission maximum (in ClCCl) was 402 nm.

`CCN1/C(=C\c2c(-c3ccc(N(C)C)cc3)c(=O)c2=O)C=Cc2ccccc21` gave an emission maximum (in C1CCCCC1) of 427 nm, an emission maximum (in Cc1ccccc1) of 434 nm and an emission maximum (in ClCCl) of 588 nm.

`CCCN1c2ccccc2Sc2cc(/C=C\c3cc(=O)oc4cc(C)ccc34)ccc21` showed an emission maximum (in ClC(Cl)Cl) of 631 nm.

For `CC(C)c1cc(C(C)C)c(B2c3cc(-n4c5ccccc5c5ccccc54)ccc3N(c3ccccc3)c3ccc(-n4c5ccccc5c5ccccc54)cc32)c(C(C)C)c1`, the emission maximum (in C1CCOC1) was 442.52 nm, the emission maximum (in CCOC(C)=O) was 442.52 nm and the emission maximum (in Cc1ccccc1) was 442.52 nm. The emission maximum (in ClCCl) was 442.52 nm and the emission maximum [1] was 452 nm.

Compound `O=c1cc(-c2ccccc2)oc(-c2ccc(-c3nc4ccccn4c3NC3CCCCC3)cc2)c1` has an emission maximum (in ClCCl) of 508 nm.

With `CCN(CC)c1ccc2cc(-c3ccc(-c4ccc(-c5cc6ccc(N(CC)CC)cc6oc5=O)cc4)cc3)c(=O)oc2c1` the emission maximum (in ClCCl) was 484 nm.

For `CC1(C)c2ccccc2N(c2ccc3nc4c5ccc(N6c7ccccc7C(C)(C)c7ccccc76)cc5c5cc(N6c7ccccc7C(C)(C)c7ccccc76)ccc5c4nc3c2)c2ccccc21`, the emission maximum (in Cc1ccccc1) was 605 nm and the emission maximum [1] was 590 nm.

`F[B-]1(F)n2c(-c3ccccc3)c3ccc4ccccc4c3c2N=C2c3c(ccc4ccccc34)C(c3ccccc3)=[N+]21` showed an emission maximum (in ClCCl) of 753 nm.

Compound `c1ccc(N(c2ccccc2)c2ccccc2)cc1` has an emission maximum (in CCO) of 353 nm.

`c1ccc2c3c(ccc2c1)-c1cccc2c1c-3cc1ccccc12` gave an emission maximum (in CCCCCCC) of 482 nm.

For `CCCCN1C(=O)c2ccc3c4ccc5c6c(cc(Br)c(c7ccc(c2c37)C1=O)c64)C(=O)N(CCCC)C5=O`, the emission maximum (in ClCCl) was 540 nm.

With `c1ccc(-c2cnc3nn4ccccc4c3c2)cc1` the emission maximum (in C1CCOC1) was 415 nm.

Compound `CC1=CC(/C=C/c2ccc([N+](C)(C)C)cc2)=[N+]2C1=C(c1ccc(C#CCO[C@@H]3O[C@H](CO)[C@@H](O)C(O)[C@H]3O)cc1)c1c(C)cc(/C=C/c3ccc([N+](C)(C)C)cc3)n1[B-]2(F)F` (stereo partly specified) has an emission maximum (in CC#N) of 629 nm.

Work on `c1ccc(-c2c3ccccc3c(-c3ccc4ccccc4c3)c3ccccc23)nc1` yielded an emission maximum (in ClCCl) of 431 nm.

With `CN(C)c1ccc(C#Cc2cc(C#Cc3ccc(C(F)(F)F)cc3)c3ccc4c(C#Cc5ccc(N(C)C)cc5)cc(C#Cc5ccc(C(F)(F)F)cc5)c5ccc2c3c45)cc1` the emission maximum (in ClCCl) was 605 nm.

`CCCC1=Cc2nc1ccc1[nH]c(cc1CCC)c1nc(c(NC(=O)CCCC(=O)O)cc3[nH]c2cc3CCC)C(CCC)=C1` gave an emission maximum (in ClCCl) of 680 nm.

Work on `Cc1c(C)c2c3ccccc3[nH]c2c2ccccc12` yielded an emission maximum (in ClCCl) of 370 nm.

`N#Cc1nc(N(Cc2ccccc2F)Cc2ccccc2F)c(C#N)nc1N(Cc1ccccc1F)Cc1ccccc1F` showed an emission maximum (in ClC(Cl)Cl) of 570 nm.

For `CC1=[N+]2C(=C(c3c4ccccc4c(-c4ccccc4)c4ccccc34)c3ccc(C)n3[B-]2(F)F)C=C1`, the emission maximum (in CC#N) was 536 nm, the emission maximum (in CCCCCC) was 527 nm and the emission maximum (in CCO) was 528 nm. For the same compound, the emission maximum (in CN(C)C=O) was 533 nm, the emission maximum (in Cc1ccccc1) was 532 nm and the emission maximum (in ClCCl) was 533 nm.

For `O=S1(=O)c2ccc(-c3ccc4c(c3)c3ccccc3n4-c3ccccc3)cc2C2(c3cc(-c4ccc5c(c4)c4ccccc4n5-c4ccccc4)ccc31)c1cc(-c3ccc4c(c3)c3ccccc3n4-c3ccccc3)ccc1S(=O)(=O)c1ccc(-c3ccc4c(c3)c3ccccc3n4-c3ccccc3)cc12`, the emission maximum (in CC1CCCO1) was 413 nm.

Compound `Clc1ccc(-c2nc3ccccc3n2-c2ccccc2)cc1` has an emission maximum (in CC#N) of 367 nm.

With `COc1ccc2c(c1)CCc1c(-c3ccccc3)c3n(c1-2)[B-](F)(F)[N+]1=C2C(=C(c4ccccc4)C1=N3)CCc1ccccc12` the emission maximum (in ClC(Cl)Cl) was 734 nm.

In the case of `COc1ccc2c3c(c4ccc(OC)cc4c2c1)C(C)(C)c1c-3ccc2ccccc12`, the emission maximum (in C1CCCCC1) is reported as 396 nm.

Work on `COc1ccc(-c2c3ccc(=[N+]4CCCCC4)cc-3oc3cc(N4CCCCC4)ccc23)cc1` yielded an emission maximum (in CCO) of 582 nm and an emission maximum (in ClCCl) of 582 nm.

Compound `c1ccc(CO[Si]23n4c5c6ccccc6c4/N=C4N=C(/N=c6/c7ccccc7c(n62)=c2c6ccccc6c(n23)=N5)c2ccccc2\4)cc1` (stereo unspecified) has an emission maximum (in CN(C)C=O) of 671 nm.

Compound `c1ccc2c(c1)Sc1ccccc1N2c1ccc2c(c1)C1(CC1)c1cc(N3c4ccccc4Sc4ccccc43)ccc1-2` has an emission maximum (in Cc1ccccc1) of 494 nm.

Work on `CCC1(CC)c2cc(C#Cc3cc(C#Cc4ccc5c(c4)C(CC)(CC)c4cc(N(c6ccccc6)c6ccccc6)ccc4-5)c4ccc5c(C#Cc6ccc7c(c6)C(CC)(CC)c6cc(N(c8ccccc8)c8ccccc8)ccc6-7)cc(C#Cc6ccc7c(c6)C(CC)(CC)c6cc(N(c8ccccc8)c8ccccc8)ccc6-7)c6ccc3c4c65)ccc2-c2ccc(N(c3ccccc3)c3ccccc3)cc21` yielded an emission maximum (in C1CCCCC1) of 524 nm, an emission maximum (in C1CCOC1) of 552 nm and an emission maximum (in CCOC(C)=O) of 545 nm. It also gave an emission maximum (in CN(C)C=O) of 557 nm, an emission maximum (in Cc1ccccc1) of 535 nm and an emission maximum (in ClC(Cl)Cl) of 545 nm. For the same compound, the emission maximum (in ClCCl) was 567 nm.

For `CCCCCCCCCn1c(-c2cc(-c3nc4ccc(C)cc4n3CCCCCCCCC)cc(-c3nc4ccc(C)cc4n3CCCCCCCCC)c2)nc2ccc(C)cc21`, the emission maximum (in C1CCOC1) was 371 nm.

`CN(C)c1ccc(/C=C/c2cc(/C=C/c3ccc(N(C)C)cc3)nc(/C=C/c3ccc(N(c4ccccc4)c4ccccc4)cc3)n2)cc1` showed an emission maximum (in C1CCOC1) of 521 nm, an emission maximum (in CC#N) of 584 nm and an emission maximum (in CC(C)=O) of 561 nm. It also gave an emission maximum (in CCCCCCC) of 451 nm, an emission maximum (in CS(C)=O) of 596 nm and an emission maximum (in Cc1ccccc1) of 480 nm. It also gave an emission maximum (in ClCCl) of 533 nm.

`COc1ccc(-n2c(-c3ccc(-c4cncc5ccccc45)cc3)nc(-c3ccccc3)c2-c2ccccc2)cc1` gave an emission maximum (in C1CCOC1) of 432 nm.

Compound `F[B-]1(F)n2c(cc3ccc4ccccc4c32)C(c2ccc(I)cc2)=C2C=C3CCc4ccccc4C3=[N+]21` has an emission maximum (in ClC(Cl)Cl) of 668 nm.

`CCN(CC)c1ccc2cc(-c3nc4ccccc4n3C)c(=O)oc2c1` gave an emission maximum (in CC#N) of 480 nm.

`COc1ccc(-c2ccc(-c3cc(-c4ccccn4)nc(-c4ccccn4)c3)cc2)cc1` gave an emission maximum (in ClCCl) of 403 nm.
